The record followed here is US7772264B2, “Salt and polymorphs of a DPPIV inhibitor” (Hoffmann-La Roche Inc., priority 2005, dated 2010).

Where a name gives a salt, the structure may show the parent alone.

Series [1] in a line: Hygroscopicity observation (water uptake and release of the crystal form). In kind it is physicochemical. Particulars: solid crystal form; XRPD and IR vary with humidity of the sample. From the text:
It has been observed that the polymorph B is hygroscopic and that the X-ray powder diffraction pattern and the IR-spectrum of polymorph B can vary, depending on the humidity of the analyzed sample. Water uptake and release, respectively, result in systematic shifts of some peak positions in the X-ray powder diffraction pattern. The crystal form B is characterized by a set of peaks, as described above, that are not susceptible to peak shifts in a range larger than 0.2 degrees in 2-theta. Samples of polymorph B, which have been dried, e.g. by elevated temperature or in a dry atmosphere, show the same X-ray powder diffraction pattern. In the IR spectrum of polymorph B, variations of humidity of the sample are mainly observed in following regions: 3700-3300, 1250-1150, 1045-1000 970-955, 900-850 cm^−1. However, changes of humidity can also have an influence on the position of the peaks outside these ranges.

The next series has as its target T1, human DPP-IV (Homo sapiens, UniProt P27487).
T1 construct: made in house; host or cells: Pichia pastoris (secreted, purified from the culture medium)
The series can be described thus: DPP-IV activity assay (fluorogenic / colorimetric). In kind it is biochemical. Particulars: natural human DPP-IV from plasma pool or recombinant human DPP-IV; 37° C., pH 7.8. As for the experimental part: Activity of DPP-IV inhibitors are tested with natural human DPP-IV derived from a human plasma pool or with recombinant human DPP-IV. Human citrate plasma from different donors is pooled, filtered through a 0.2 micron membrane under sterile conditions and aliquots of 1 mL are shock frozen and stored at −120° C. until used. In the colorimetric DPP-IV assay 5 to 10 μL human plasma and in the fluorometric assay 1.0 μL of human plasma in a total assay volume of 100 μL is used as an enzyme source. The cDNA of the human DPP-IV sequence of amino acid 31- to 766, restricted for the N-terminus and the transmembrane domain, is cloned into pichia pastoris. […]
In the calorimetric assay H-Ala-Pro-pNA.HCl (Bachem L-1115) is used as a substrate. […] Fluorescence is detected in a Perkin Elmer Luminescence Spectrometer LS 50B at an excitation wavelength of 400 nm and an emission wavelength of 505 nm continuously every 15 seconds for 10 to 30 minutes. Initial rate constants are calculated by best fit linear regression. The absorption of pNA liberated from the calorimetric substrate is detected in a Packard SpectraCount at […] continuously every 2 minutes for 30 to 120 minutes. Initial rate constants are calculated by best fit linear regression. […]
IC50 determinations of test compounds are calculated by non-linear best fit regression of the DPP-IV inhibition of at least 5 different compound concentrations. […]

T1 sequence (P27487 31-766): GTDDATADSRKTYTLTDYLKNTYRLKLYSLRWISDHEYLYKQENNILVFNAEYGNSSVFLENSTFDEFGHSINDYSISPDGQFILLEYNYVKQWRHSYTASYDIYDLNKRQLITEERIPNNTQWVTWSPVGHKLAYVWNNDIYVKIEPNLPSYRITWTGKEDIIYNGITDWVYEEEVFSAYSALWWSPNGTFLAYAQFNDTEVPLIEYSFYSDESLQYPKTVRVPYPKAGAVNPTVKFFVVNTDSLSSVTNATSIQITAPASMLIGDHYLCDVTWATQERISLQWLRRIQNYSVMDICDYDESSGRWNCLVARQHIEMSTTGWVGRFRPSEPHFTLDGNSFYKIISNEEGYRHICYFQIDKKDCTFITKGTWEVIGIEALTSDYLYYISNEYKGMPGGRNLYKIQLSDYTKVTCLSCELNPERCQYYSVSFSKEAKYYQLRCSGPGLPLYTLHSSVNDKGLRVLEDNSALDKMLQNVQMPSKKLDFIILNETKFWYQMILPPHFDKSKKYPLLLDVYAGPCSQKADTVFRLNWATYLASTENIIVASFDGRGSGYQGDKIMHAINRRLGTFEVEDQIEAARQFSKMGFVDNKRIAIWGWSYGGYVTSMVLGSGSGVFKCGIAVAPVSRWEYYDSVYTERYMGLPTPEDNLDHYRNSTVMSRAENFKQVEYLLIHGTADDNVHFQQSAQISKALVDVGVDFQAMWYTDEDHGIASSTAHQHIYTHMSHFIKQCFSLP

With `CS(=O)(=O)O.Cc1oc(-c2ccccc2)nc1CCNCC(=O)N1CCC[C@H]1C#N` [polymorph B, (S)-1-{[2-(5-Methyl-2-phenyl-oxazol-4-yl)-ethylamino]-acetyl}-pyrrolidine-2-carbonitrile mesylate], the hygroscopicity entry in series [1] is “hygroscopic”. Turning to `Cc1oc(-c2ccccc2)nc1CCNCC(=O)N1CCC[C@H]1C#N` [(S)-1-{[2-(5-Methyl-2-phenyl-oxazol-4-yl)-ethylamino]-acetyl}-pyrrolidine-2-carbonitrile mesylate], at human DPP-IV, the IC50 was 75 nM and the Ki is 80 nM.

One may read the IC50 as the midpoint of a concentration-inhibition curve. In general, Ki refers to the dissociation constant of the complex between target and ligand, obtained from inhibition or displacement.
